Format in all cases: biochemical
One assay addresses JAK1 (Homo sapiens, UniProt P23458). Description: JAK kinase activity, homogeneous time-resolved fluorescence (JAK1 reaction system). The conditions noted are these: ATP 2 μM, JAK1 protein 0.2 ng/μL; read-out: JAK 1 activity. The method, boiled down:
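HTRF assay: JAK1 (0.2 ng/μL) with 2 μM ATP and substrate in 50 mM Hepes pH 7.0, 5 mM MgCl2, 1 mM DTT, 1 h. Phospho-substrate antibody/XL-615 detection with EDTA; 665/615 nm ratio, excitation 320 nm. IC50 from Hill-type fit against no-enzyme and no-compound controls.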

The target of a further assay is JAK2 (Homo sapiens, UniProt O60674). Description: JAK kinase activity, homogeneous time-resolved fluorescence (JAK2 reaction system). Particulars: ATP 2 μM, JAK2 protein 0.01 ng/μL. The procedure, abridged:
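IC50 derived by Hill-equation fit of the 665/615 nm time-resolved fluorescence ratio after EDTA-containing detection mix with anti-phosphosubstrate antibody. Preceding 1 h reaction contained 2 μM ATP, 0.01 ng/μL JAK2, substrate, 50 mM Hepes pH 7.0, 5 mM MgCl2, 1 mM DTT.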

A further assay deals with T1, JAK3 (Homo sapiens, UniProt P52333).
T1 sequence (P52333 1-1124): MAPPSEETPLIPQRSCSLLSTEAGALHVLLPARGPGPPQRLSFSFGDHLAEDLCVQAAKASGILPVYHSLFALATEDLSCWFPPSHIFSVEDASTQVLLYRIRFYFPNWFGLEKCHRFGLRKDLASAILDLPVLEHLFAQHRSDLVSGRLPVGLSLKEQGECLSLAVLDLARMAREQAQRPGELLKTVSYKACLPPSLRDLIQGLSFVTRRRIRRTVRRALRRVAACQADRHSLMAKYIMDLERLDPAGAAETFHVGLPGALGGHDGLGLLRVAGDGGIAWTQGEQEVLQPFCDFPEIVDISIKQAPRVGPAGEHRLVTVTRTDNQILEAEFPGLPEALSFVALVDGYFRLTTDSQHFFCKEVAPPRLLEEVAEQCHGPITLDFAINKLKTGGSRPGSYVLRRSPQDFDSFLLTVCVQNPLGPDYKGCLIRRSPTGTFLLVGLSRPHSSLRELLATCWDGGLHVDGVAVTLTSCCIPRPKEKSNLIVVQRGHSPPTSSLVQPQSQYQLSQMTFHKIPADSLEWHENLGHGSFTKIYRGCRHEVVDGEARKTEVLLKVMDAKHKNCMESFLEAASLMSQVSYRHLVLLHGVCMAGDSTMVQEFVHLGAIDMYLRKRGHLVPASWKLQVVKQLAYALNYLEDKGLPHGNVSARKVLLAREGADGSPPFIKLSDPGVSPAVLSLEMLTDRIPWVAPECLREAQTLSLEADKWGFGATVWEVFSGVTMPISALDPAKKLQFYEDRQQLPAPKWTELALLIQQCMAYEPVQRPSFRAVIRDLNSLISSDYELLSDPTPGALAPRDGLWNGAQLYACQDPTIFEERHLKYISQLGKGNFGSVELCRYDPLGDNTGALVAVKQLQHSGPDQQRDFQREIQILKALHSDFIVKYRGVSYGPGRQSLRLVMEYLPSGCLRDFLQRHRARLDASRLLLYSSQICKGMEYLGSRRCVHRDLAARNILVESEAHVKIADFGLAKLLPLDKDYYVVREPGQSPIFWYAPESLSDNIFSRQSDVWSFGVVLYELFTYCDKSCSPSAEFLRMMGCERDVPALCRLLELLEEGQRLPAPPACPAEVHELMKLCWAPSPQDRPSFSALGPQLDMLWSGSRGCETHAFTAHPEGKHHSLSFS
Description: JAK kinase activity, homogeneous time-resolved fluorescence (JAK3 reaction system). The conditions noted are these: ATP 2 μM, JAK3 protein 0.04 ng/μL; read-out: JAK 3 activity.

In the next assay the target is TYK2 (Homo sapiens, UniProt P29597). Description: JAK kinase activity, homogeneous time-resolved fluorescence (TYK2 reaction system). Particulars: ATP 2 μM, TYK2 protein 0.2 ng/μL; read-out: TYK 2 activity. The procedure, abridged: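 Activity read as the 665 nm/615 nm ratio after adding EDTA-containing detection mix with anti-phospho-substrate antibody and XL-615. Beforehand, 0.2 ng/μL TYK2, 2 μM ATP, substrate and compound reacted 1 h in pH 7.0 Hepes buffer with MgCl2 and DTT. IC50 fitted with Hill-slope equation.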
Sequence of TYK2 (P29597 whole entry): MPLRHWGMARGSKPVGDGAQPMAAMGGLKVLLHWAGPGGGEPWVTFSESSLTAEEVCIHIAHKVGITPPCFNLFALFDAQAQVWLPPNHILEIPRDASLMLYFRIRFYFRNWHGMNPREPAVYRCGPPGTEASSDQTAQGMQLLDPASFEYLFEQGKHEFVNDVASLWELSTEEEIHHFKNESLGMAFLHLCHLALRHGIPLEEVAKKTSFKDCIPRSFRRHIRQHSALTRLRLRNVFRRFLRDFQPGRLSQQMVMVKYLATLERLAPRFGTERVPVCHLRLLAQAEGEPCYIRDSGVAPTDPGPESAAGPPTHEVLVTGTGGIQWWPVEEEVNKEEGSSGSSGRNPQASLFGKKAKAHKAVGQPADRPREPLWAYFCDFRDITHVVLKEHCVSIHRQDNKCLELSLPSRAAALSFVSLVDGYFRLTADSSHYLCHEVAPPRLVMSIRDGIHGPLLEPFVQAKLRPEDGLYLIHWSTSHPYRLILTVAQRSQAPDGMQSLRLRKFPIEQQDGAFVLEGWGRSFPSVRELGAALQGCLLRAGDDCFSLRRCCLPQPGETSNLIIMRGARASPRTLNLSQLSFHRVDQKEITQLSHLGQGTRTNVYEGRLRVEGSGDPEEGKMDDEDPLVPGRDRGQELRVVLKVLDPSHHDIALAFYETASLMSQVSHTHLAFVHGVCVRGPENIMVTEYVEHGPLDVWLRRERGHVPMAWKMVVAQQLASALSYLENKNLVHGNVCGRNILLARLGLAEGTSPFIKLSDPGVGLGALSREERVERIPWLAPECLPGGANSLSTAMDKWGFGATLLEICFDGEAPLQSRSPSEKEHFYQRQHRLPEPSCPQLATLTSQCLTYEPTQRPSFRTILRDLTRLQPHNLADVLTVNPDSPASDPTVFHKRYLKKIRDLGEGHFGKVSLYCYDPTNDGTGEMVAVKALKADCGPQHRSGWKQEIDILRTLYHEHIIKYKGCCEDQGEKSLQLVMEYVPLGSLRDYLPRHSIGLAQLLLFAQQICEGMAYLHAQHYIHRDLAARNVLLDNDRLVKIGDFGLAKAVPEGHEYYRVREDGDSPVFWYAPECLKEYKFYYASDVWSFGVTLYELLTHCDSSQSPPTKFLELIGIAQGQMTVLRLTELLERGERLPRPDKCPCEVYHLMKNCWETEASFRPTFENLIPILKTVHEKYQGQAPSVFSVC

Sequence of JAK1 (P23458 whole entry): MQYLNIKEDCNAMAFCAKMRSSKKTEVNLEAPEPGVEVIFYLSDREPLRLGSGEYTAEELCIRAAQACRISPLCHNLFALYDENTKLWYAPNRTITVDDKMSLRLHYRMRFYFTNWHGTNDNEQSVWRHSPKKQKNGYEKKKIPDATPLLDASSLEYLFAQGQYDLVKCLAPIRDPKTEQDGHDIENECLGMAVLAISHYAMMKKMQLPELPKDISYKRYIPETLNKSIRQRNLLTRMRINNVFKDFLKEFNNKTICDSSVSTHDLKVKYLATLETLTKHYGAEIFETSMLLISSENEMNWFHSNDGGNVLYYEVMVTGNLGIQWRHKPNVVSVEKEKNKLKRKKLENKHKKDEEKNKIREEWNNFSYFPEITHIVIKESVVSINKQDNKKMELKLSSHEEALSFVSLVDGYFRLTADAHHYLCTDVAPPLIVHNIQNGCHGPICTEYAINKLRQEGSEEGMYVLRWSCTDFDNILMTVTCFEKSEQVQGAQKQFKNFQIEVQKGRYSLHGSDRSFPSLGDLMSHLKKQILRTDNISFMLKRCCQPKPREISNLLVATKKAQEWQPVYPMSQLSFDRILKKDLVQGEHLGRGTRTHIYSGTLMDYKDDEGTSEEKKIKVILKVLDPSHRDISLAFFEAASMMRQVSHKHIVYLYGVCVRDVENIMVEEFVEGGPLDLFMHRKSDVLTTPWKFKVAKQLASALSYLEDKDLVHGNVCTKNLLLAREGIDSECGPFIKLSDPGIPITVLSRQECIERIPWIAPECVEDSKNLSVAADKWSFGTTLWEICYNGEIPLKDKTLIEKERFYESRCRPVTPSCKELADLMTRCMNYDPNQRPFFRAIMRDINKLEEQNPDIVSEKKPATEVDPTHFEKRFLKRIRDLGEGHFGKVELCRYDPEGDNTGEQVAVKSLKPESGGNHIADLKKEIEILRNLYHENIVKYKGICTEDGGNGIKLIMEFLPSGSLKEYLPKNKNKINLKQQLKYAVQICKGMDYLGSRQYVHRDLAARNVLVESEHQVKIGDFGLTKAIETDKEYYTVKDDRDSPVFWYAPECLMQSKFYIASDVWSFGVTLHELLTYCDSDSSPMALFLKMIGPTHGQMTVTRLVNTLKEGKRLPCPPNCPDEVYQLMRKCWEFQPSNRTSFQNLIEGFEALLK
Sequence of JAK2 (O60674 whole entry): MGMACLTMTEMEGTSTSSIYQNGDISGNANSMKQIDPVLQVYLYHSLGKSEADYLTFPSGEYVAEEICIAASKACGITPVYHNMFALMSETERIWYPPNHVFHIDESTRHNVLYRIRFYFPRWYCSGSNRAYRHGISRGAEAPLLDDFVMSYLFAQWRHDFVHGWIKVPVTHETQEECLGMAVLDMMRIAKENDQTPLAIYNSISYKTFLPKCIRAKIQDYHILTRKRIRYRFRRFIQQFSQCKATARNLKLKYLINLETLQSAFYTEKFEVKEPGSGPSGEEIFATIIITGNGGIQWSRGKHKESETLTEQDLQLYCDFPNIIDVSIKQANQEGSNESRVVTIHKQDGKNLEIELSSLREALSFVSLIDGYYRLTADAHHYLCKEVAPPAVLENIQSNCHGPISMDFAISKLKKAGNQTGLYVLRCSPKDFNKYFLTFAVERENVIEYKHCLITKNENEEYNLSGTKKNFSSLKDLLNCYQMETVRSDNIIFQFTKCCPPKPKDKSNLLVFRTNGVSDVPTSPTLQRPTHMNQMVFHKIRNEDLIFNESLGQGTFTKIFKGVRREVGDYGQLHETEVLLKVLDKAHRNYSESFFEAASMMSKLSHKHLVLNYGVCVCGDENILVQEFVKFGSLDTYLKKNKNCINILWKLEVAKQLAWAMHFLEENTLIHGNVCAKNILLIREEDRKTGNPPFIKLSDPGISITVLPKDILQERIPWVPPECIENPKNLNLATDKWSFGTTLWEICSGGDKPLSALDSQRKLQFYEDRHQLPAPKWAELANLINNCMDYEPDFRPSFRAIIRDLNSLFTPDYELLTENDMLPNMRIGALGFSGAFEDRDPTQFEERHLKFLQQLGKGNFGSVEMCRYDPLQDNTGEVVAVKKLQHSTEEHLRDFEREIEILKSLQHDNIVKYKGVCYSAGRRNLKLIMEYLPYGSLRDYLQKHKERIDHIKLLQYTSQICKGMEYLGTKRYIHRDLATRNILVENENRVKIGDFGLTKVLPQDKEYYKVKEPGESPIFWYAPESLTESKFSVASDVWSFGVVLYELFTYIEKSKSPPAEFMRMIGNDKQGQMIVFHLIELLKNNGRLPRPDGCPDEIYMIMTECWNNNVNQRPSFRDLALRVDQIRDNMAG

As for `Nc1cc2ccc1-c1ccnc(n1)Nc1ccc(F)c(c1)COc1ccc(cc1)NC2=O` [Example 91, 1^2-amino-4^4-fluoro-6-oxa-3,8-diaza-2(4,2)-pyrimidina-1,7(1,4),4(1,3)-tri-benzenacyclononaphane-9-one], the IC50 at JAK1 is greater than 10 µM; on JAK2 it was greater than 10 µM; on JAK3, 0.101 to 1 µM; on TYK2 it was greater than 10 µM.
Consider `O=C1NCCCCOCc2cc(ccc2OC2CCCC2)Nc2nccc(n2)-c2ccc1cc2F` [Example 92, 4^4-cyclopentoxy-1^2-fluoro-6-oxa-3,11-diaza-2(4,2)-pyrimidina-1(1,4),4(1,3)-dibenzenacyclododecaphan-12-one], for which the IC50 lay in the range of 1 to 10 µM at JAK1, 0.101 to 1 µM against JAK2, 0.011 to 0.1 µM at JAK3 and 1 to 10 µM on TYK2.
As for `O=C1NCCCCOCc2cc(cc(F)c2F)Nc2nccc(n2)-c2ccc1cc2[N+](=O)[O-]` [Example 93, 4^4,4^5-difluoro-1^2-nitro-6-oxa-3,11-di-aza-2(4,2)-pyrimidina-1(1,4),4(1,3)-dibenzenacyclododecaphan-12-one], the IC50 at JAK1 is 1 to 10 µM; at JAK2, 1 to 10 µM; on JAK3, 0.101 to 1 µM; on TYK2 it was greater than 10 µM.
Turning to `Nc1cc2ccc1-c1ccnc(n1)Nc1cc(F)c(F)c(c1)COCCCCNC2=O` [Example 94, 1^2-amino-4^4,4^5-difluoro-6-oxa-3,11-diaza-2(4,2)-pyrimidina-1(1,4),4(1,3)-dibenzenacyclododecaphan-12-one], the IC50 at JAK1 is 1 to 10 µM; against JAK2, 1 to 10 µM; on JAK3 it was 0.011 to 0.1 µM; at TYK2, greater than 10 µM.
Consider `CC1CCNC(=O)c2ccc(c(N)c2)-c2ccnc(n2)Nc2ccc(OC3CC3)c(c2)COC1` (centres unmarked) [Example 95, 1^2-amino-4^4-cyclopropoxy-8-methyl-6-oxa-3, 11-diaza-2 (4,2)-pyrimidina-1(1,4),4(1,3)-dibenzenacyclododecaphan-12-one], for which the IC50 on JAK1 is 1 to 10 µM; against JAK2, 0.011 to 0.1 µM; on JAK3, less than 0.01 µM; on TYK2, 1 to 10 µM.
As to `Nc1cc2ccc1-c1ccnc(n1)Nc1ccc(Oc3ccccc3)c(c1)COCCCCNC2=O` [Example 96, 1^2-amino-4^4-phenoxy-6-oxa-3,11-diaza-2(4,2)-pyrimidin-1(1,4),4(1,3)-dibenzenacyclododecaphan-12-one], the IC50 is 1 to 10 µM on JAK1, 1 to 10 µM at JAK2, 0.011 to 0.1 µM at JAK3 and greater than 10 µM at TYK2.
On to `Nc1cc2ccc1-c1ccnc(n1)Nc1ccc(OCC3CCCCC3)c(c1)COCCCCNC2=O` [Example 97, 1^2-amino-4^4-(cyclohexylmethoxy)-6-oxa-3,11-diaza-2(4,2)-pyrimidi-na-1(1,4),4(1,3)-dibenzenacyclodo-decaphan-12-one], for which the IC50 is 1 to 10 µM on JAK1, 1 to 10 µM at JAK2, 0.011 to 0.1 µM at JAK3 and 1 to 10 µM on TYK2.
With `Nc1cc2ccc1-c1ccnc(n1)Nc1ccc(OC3CC(F)(F)C3)c(c1)COCCCCNC2=O` [Example 98, 1^2-amino-4^4-(3,3-difluorocyclobuto-xy)-6-oxa-3,11-diaza-2(4,2)-pyri-midina-1(1,4),4(1,3)-dibenzenacyclo-dodecaphan-12-one], the IC50 on JAK1 was 0.101 to 1 µM; against JAK2, 0.101 to 1 µM; on JAK3, 0.011 to 0.1 µM; on TYK2, 1 to 10 µM.
As for `O=C1NCCCCOCc2cc(ccc2OCC2CCC2)Nc2nccc(n2)-c2ccc1cc2[N+](=O)[O-]` [Example 99, 4^4-(cyclobutylmethoxy)-1^2-nitro-6-oxa-3,11-diaza-2(4,2)-pyrimidina-1(1,4),4(1,3)-dibenzenacyclodode-caphan-12-one], the IC50 at JAK1 was greater than 10 µM; on JAK2, 1 to 10 µM; on JAK3 it was 0.101 to 1 µM; on TYK2 it was greater than 10 µM.
As for `Nc1cc2ccc1-c1ccnc(n1)Nc1ccc(OCC3CCC3)c(c1)COCCCCNC2=O` [Example 100, 1^2-amino-4^4-(cyclobutylmethoxy)-6-oxa-3,11-diaza-2(4,2)-pyrimidina-1(1,4),4(1,3)-dibenzenacyclododeca-phan-12-one], the IC50 at JAK1 was 0.101 to 1 µM; on JAK2, 0.101 to 1 µM; at JAK3, less than 0.01 µM; at TYK2, 1 to 10 µM.
Take `O=C1NCCCCOCc2cc(ccc2Oc2cccc(F)c2)Nc2nccc(n2)-c2ccc1cc2[N+](=O)[O-]` [Example 101, 4^4-(3-fluorophenoxy)-1^2-nitro-6-oxa-3,11-diaza-2(4,2)-pyrimidina-(1,4),4(1,3)-dibenzenacyclododeca-phan-12-one]: the IC50 is greater than 10 µM at JAK1, 1 to 10 µM at JAK2, 1 to 10 µM at JAK3 and greater than 10 µM at TYK2.
Take `Nc1cc2ccc1-c1ccnc(n1)Nc1ccc(Oc3cccc(F)c3)c(c1)COCCCCNC2=O` [Example 102, 1^2-amino-4^4-(3-fluorophenoxy)-6-oxa-3,11-diaza-2(4,2)-pyrimidina-1(1,4),4(1,3)-dibenzenacyclodode-caphan-12-one]: the IC50 at JAK1 was 1 to 10 µM; against JAK2 it was 1 to 10 µM; at JAK3, 0.011 to 0.1 µM; at TYK2, greater than 10 µM.
As for `CC1CCNC(=O)c2ccc(c([N+](=O)[O-])c2)-c2ccnc(n2)Nc2ccc(OC3CC3)c(c2)COC1` (centres unmarked) [Example 103], the IC50 is greater than 10 µM at JAK1, 1 to 10 µM against JAK2, 0.101 to 1 µM at JAK3 and greater than 10 µM at TYK2.
For `O=C1NCCCCOCc2cc(ccc2OCC2CCCC2)Nc2nccc(n2)-c2ccc1cc2[N+](=O)[O-]` [Example 104, 4^4-(cyclopentylmethoxy)-1^2-nitro-6-oxa-3,11-diaza-2(4,2)-pyrimidina-1(1,4),4(1,3)-dibenzenacyclodo-decaphan-12-one], the IC50 is greater than 10 µM on JAK1, 1 to 10 µM against JAK2, 0.101 to 1 µM at JAK3 and greater than 10 µM on TYK2.
As for `Nc1cc2ccc1-c1ccnc(n1)Nc1ccc(OCC3CCCC3)c(c1)COCCCCNC2=O` [Example 105, 1^2-amino-4^4-(cyclopentylmethoxy)-6-oxa-3,11-diaza-2(4,2)-pyrimidi-na-1(1,4),4(1,3)-dibenzenacyclodo-decaphan-12-one], the IC50 on JAK1 was 1 to 10 µM; against JAK2, 0.101 to 1 µM; on JAK3, less than 0.01 µM; on TYK2, greater than 10 µM.
For `O=C1NCCCCOCc2cc(ccc2Oc2ccc(F)cc2)Nc2nccc(n2)-c2ccc1cc2[N+](=O)[O-]` [Example 106, 4^4-(4-fluorophenoxy)-1^2-nitro-6-o-xa-3,11-diaza-2(4,2)-pyrimidina-1(1,4),4(1,3)-dibenzenacyclo-dodecaphan-12-one], in that order: greater than 10 µM, 1 to 10 µM, 0.101 to 1 µM and greater than 10 µM.
Take `Nc1cc2ccc1-c1ccnc(n1)Nc1ccc(Oc3ccc(F)cc3)c(c1)COCCCCNC2=O` [Example 107, 1^2-amino-4^4-(4-fluorophenoxy)-6-oxa-3,11-diaza-2(4,2)-pyrimidina-1(1,4),4(1,3)-dibenzenacyclo-dodecaphan-12-one]: the IC50 is 1 to 10 µM on JAK1, 0.101 to 1 µM against JAK2, 0.011 to 0.1 µM on JAK3 and greater than 10 µM at TYK2.

Values taken from patent publication US20230203059A1, “MACROCYCLIC JAK INHIBITOR AND USES THEREOF” (Biopolar Hongye (Guangdong) Pharmaceutical Co. Ltd., priority 2020, published 2023).
